Experiments:
lung tumor LLC cells = experiment: LLC cell viability (CellTiter-Fluor) as readout of proliferation; type: cell-based, murine; conditions: 5 mM ALA at day 0, no medium refresh
SHSY5Y cells [1] = experiment: Flow cytometric analysis of apoptosis in SHSY5Y cells; type: cell-based, human; conditions: 5 mM ALA for 72 hours
SHSY5Y cells [2] = experiment: Proliferation of SHSY5Y cells by crystal violet staining; type: cell-based, human; conditions: 5 mM ALA at day 0, no medium refresh
Method: (A) Heme content in SHSY5Y cells non-treated (NT) or treated with 5 mM ALA for 15 hours. Values are expressed as pmol heme/mg protein. Data represent mean±SEM, n=3; *=P<0.05. (B, C) qRT-PCR analysis of the expression of ALAS1 (B) and FLVCR1a (C) in SHSY5Y cells non-treated (NT) or treated with 5 mM ALA for 15 hours. Transcript abundance, normalized to beta-actin mRNA expression, is expressed as a fold increase over a calibrator sample. Data represent mean±SEM, n=4. For statistical analyses, an unpaired Student's t-test was used; *p<0.05. (D) qRT-PCR analysis of the expression of ALAS1 in SKCO1 cells untreated (NT) or treated with 5 mM ALA for 24 hours. Transcript abundance, normalized to beta-actin mRNA expression, is expressed as a fold increase over a calibrator sample. Data represent mean±SEM, n=5. […] Band intensities were measured by densitometry and normalized to beta-actin expression. […] (F) Proliferation of SHSY5Y cells assessed by crystal violet staining at different time points (starting from the day after plating, named “day 0”). Treatment with 5 mM ALA occurred at “day 0” and cells were monitored until the end of the experiment without medium refresh. […] (G) SKCO1 cells viability measured by the CellTiter-Fluor Cell Viability Assay (Promega, Madison, WI USA, catalog n°G6080) at different time points, starting from the day after plating (named “day 0”), as a readout of cell proliferation. […]

BTECs = experiment: In vitro tubulogenesis assay on matrigel; type: cell-based, human; conditions: FLVCR1a-silenced vs scramble shRNA BTECs, 18 hours
Description: (A) BTECs counting, as a readout of cell proliferation, at the indicated time points. […] Data represent mean±SEM, n=4. For statistical analyses, a two-way analysis of variance was used, followed by the Bonferroni correction for multiple group comparisons; ***p<0.001. (B) Quantification of BTECs migration rate in wound-healing assay. […] Data represent mean±SEM, n=32. For statistical analyses, a nonparametric unpaired Mann-Whitney test was used; ***p<0.001. (C) In vitro tubulogenesis assay on matrigel. […] The number of nodes counted within the neo-formed vascular networks is shown. Data represent mean±SEM; n=10. For statistical analyses, a nonparametric unpaired Mann-Whitney test was used; **p<0.01.
To assess in vitro formation of capillary-like structures, 3.5*10^4 BTECs were seeded in 24-well plates coated with BD Matrigel Matrix Growth Factor Reduced (BD Biosciences, Franklin Lakes, NJ USA, catalog n°356230). Cell organization on Matrigel was monitored using a Nikon Eclipse T-E microscope with a Nikon Plan 10×/0.10 NA objective. […] Images obtained 18 hours after the start of the experiment were analysed using Fiji open source software (Schindelin et al., 2012) (http://fiji.sc/ RRID:SCR_002285) in order to assess the number of nodes (intersections formed by at least three detectable cells) for each field. […]

Molecule | cell proliferation (cell viability) (lung tumor LLC cells) | apoptosis (SHSY5Y cells [1]) | cell proliferation (SHSY5Y cells [2]) | formation of microvascular network on matrigel (number of nodes) (BTECs)
Cl.NCC(=O)CCC(=O)O [5-ALA, 5-Aminolevulinic acid hydrochloride] | significantly reduced | increased apoptosis | reduced SHSY5Y cell proliferation | 
FLVCR1a shRNA: shRNA specifically down-regulating FLVCR1a without targeting FLVCR1b; pLKO.1 lentiviral clone TRCN0000059599, antisense SEQ ID No.: 2 (antisense TTGCTAATGATGCTGTACTGG; sense CCAGTACAGCATCATTAGCAA) |  |  |  | impaired ability to form a complex microvascular network on matrigel

Reference: patent US20240285670A1, “THERAPEUTIC TREATMENT OF TUMORS BY BLOCKING THE HEME SYNTHESIS-EXPORT AXIS” (Università degli Studi di Torino, priority 2021, published 2024)
